Assay results reported in PMC12521730, “Quantitative dual-isotope preclinical SPECT/CT imaging and biodistribution of the mercury-197m/g theranostic pair with [^197m/gHg]HgCl2 and a [^197m/gHg]Hg-tetrathiol complex as a platform for radiopharmaceutical development” (EJNMMI Radiopharmacy and Chemistry, 2025).

Experiment: Ex vivo biodistribution (gamma counter)
Format: in vivo, healthy male C57BL/6 mice
Conditions: Hg-197m, 2 h post administration
Description: For animal injection, the tracer was prepared at high molar activity. Radiolabeling of H4Tetrathiol (10^–2 M in DMSO; 40 μL for imaging, 20 μL for bioD) (or DMSO, for [^197m/gHg]HgCl2 mice) with [^197m/gHg]HgCl2 (imaging: 26.7 MBq total m + g, 62 μL; bioD: 13.04 MBq total m + g, 31 μL) was performed in a mixture of ammonium acetate buffer (1 M; pH 7; 198 μL for imaging or 149 μL for bioD) and 6 M NaOH (72 μL or 38 μL required to achieve a pH of 7.5 after addition of activity, for imaging or BioD labeling, respectively). The reaction was allowed to stand for 1 h at 37 °C and quantitative (> 99%) non-isolated percentage radiochemical yield (%RCY) was confirmed via the iTLC methods mentioned above. Further, 100 µL of the reaction was diluted with 50 µL of PBS Tween-20 (0.01 M sodium phosphate, 0.15 M NaCl, 0.05% Tween-20) for imaging mice, or 50 µL of the reaction was diluted with 100 µL of PBS Tween-20 for BioD mice. The tracers were prepared immediately before injection to avoid radiolysis and minimize the tracer loss to any surfaces due to its lipophilicity. The injected doses of each isomer, ^197mHg and ^197gHg, were quantified by measuring an aliquot of known volume of each tracer preparation via HPGe gamma spectroscopy and decay corrected for time of injection using the Eqs. (1) and (2).
The study was conducted in compliance with the guidelines set by the Canadian Council on Animal Care (CCAC) and approved by the Animal Care Committee (ACC) at the University of British Columbia (A20-0132). A total of eight healthy male C57BL/6 mice weighing approximately 30 g for group 1 and 25 g for group 2 were used in the study. The mice were divided into two experimental groups: group 1 (n = 4) received free [^197m/gHg]HgCl2, while group 2 (n = 4) received [^197m/gHg]Hg-Tetrathiol. Within each group, one mouse was allocated for imaging, while the rest were designated for ex vivo biodistribution analysis. For SPECT imaging, the designated mice were anesthetized using isoflurane via a precision vaporizer. […] Once anesthetized, each imaging mouse received an intravenous (IV) injection via the lateral tail vein of 150 μL of [^197m/gHg]HgCl2 (0.492 MBq ^197mHg + 3.171 MBq ^197gHg) or [^197m/gHg]Hg-Tetrathiol (0.899 MBq ^197mHg + 4.230 MBq ^197gHg) in PBS Tween-20 (0.01 M Na Phosphate, 0.15 M NaCl, 0.05% Tween-20).
Mice received an IV injection of [^197m/gHg]HgCl2 (0.275 MBq ^197mHg + 1.758 MBq ^197gHg, 150 μL) or [^197m/gHg]Hg-Tetrathiol (0.384 MBq ^197mHg + 1.733 MBq ^197gHg, 150 μL) (n = 3 per group) via the lateral tail vein using a Tailveiner restrainer. After the injection, the mice were returned to their experimental cages and allowed unrestricted movement. Biodistribution studies were conducted 2 h after administration. Mice were humanely euthanized with an overdose of isoflurane followed by cardiac puncture to collect blood pool activity. The organs of interest were fully extracted, cleaned of blood without rinsing, weighed, and analysed for radioactivity using a calibrated gamma counter with the 55–93 keV energy window for ^197gHg and the 110–160 keV energy window for ^197mHg (Packard Cobra II, Perkin Elmer, Waltham, MA, USA). The stomach and intestines were carefully cleaned prior to analysis to remove residual contents. For tissues and fluids that could not be fully removed (muscle, blood and bone) activity values were extrapolated based on standardised organ weights for age- and sex-matched mice tables to ensure accurate normalization (Davies and Morris [1993]; Foster et al. [2014]). The stomach and whole intestines were cleaned before analysis. The radioactivity measurements were decay corrected for time of injection using the Eqs. (1) and (2). The results are reported as the percentage of the injected activity per gram of tissue (%IA/g) and percentage of the injected activity per tissue (%IA/organ).

O=C(CC[S-])OCC(COC(=O)CC[S-])(COC(=O)CC[S-])COC(=O)CC[S-].[Hg+2] [[^197m/gHg]Hg-Tetrathiol]
Animal 2 (%IA/g) m: blood: 0.13 %IA/g
Animal 2 (%IA/g) m: bone: 1.62 %IA/g
Animal 2 (%IA/g) m: brain: 0.02 %IA/g
Animal 2 (%IA/g) m: feces: 0.05 %IA/g
Animal 2 (%IA/g) m: heart: 0.59 %IA/g
Animal 2 (%IA/g) m: kidneys: 2.35 %IA/g
Animal 2 (%IA/g) m: large intestine: 0.05 %IA/g
Animal 2 (%IA/g) m: lungs: 7.04 %IA/g
Animal 2 (%IA/g) m: muscle: 0.02 %IA/g
Animal 2 (%IA/g) m: pancreas: 0.04 %IA/g
Animal 2 (%IA/g) m: small intestine: 0.08 %IA/g
Animal 2 (%IA/g) m: spleen: 79.95 %IA/g
Animal 2 (%IA/g) m: stomach: 0.37 %IA/g
Animal 2 (%IA/g) m: tail: 1.39 %IA/g
Animal 2 (%IA/g) m: urine: 0.03 %IA/g
Animal 3 (%IA/g) m: bladder: 0.04 %IA/g
Animal 3 (%IA/g) m: blood: 0.15 %IA/g
Animal 3 (%IA/g) m: bone: 1.38 %IA/g
Animal 3 (%IA/g) m: brain: 0.04 %IA/g
Animal 3 (%IA/g) m: feces: 0.01 %IA/g
Animal 3 (%IA/g) m: heart: 0.70 %IA/g
Animal 3 (%IA/g) m: kidneys: 3.71 %IA/g
Animal 3 (%IA/g) m: large intestine: 0.12 %IA/g
Animal 3 (%IA/g) m: lungs: 9.69 %IA/g
Animal 3 (%IA/g) m: muscle: 0.02 %IA/g
Animal 3 (%IA/g) m: pancreas: 0.09 %IA/g
Animal 3 (%IA/g) m: small intestine: 0.10 %IA/g
Animal 3 (%IA/g) m: spleen: 108.27 %IA/g
Animal 3 (%IA/g) m: stomach: 1.02 %IA/g
Animal 3 (%IA/g) m: tail: 0.66 %IA/g
Animal 3 (%IA/g) m: urine: 0.03 %IA/g
Animal 4 (%IA/g) m: bladder: 0.07 %IA/g
Animal 4 (%IA/g) m: blood: 0.12 %IA/g
Animal 4 (%IA/g) m: bone: 1.62 %IA/g
Animal 4 (%IA/g) m: brain: 0.02 %IA/g
Animal 4 (%IA/g) m: feces: 0.01 %IA/g
Animal 4 (%IA/g) m: heart: 0.64 %IA/g
Animal 4 (%IA/g) m: kidneys: 3.03 %IA/g
Animal 4 (%IA/g) m: large intestine: 0.05 %IA/g
Animal 4 (%IA/g) m: lungs: 7.69 %IA/g
Animal 4 (%IA/g) m: muscle: 0.02 %IA/g
Animal 4 (%IA/g) m: pancreas: 0.05 %IA/g
Animal 4 (%IA/g) m: small intestine: 0.15 %IA/g
Animal 4 (%IA/g) m: spleen: 101.18 %IA/g
Animal 4 (%IA/g) m: stomach: 0.12 %IA/g
Animal 4 (%IA/g) m: tail: 7.32 %IA/g
Animal 4 (%IA/g) m: urine: 0.04 %IA/g
Average Hg-197m (%IA/g): bladder: 0.044 %IA/g
Average Hg-197m (%IA/g): blood: 0.13 %IA/g
Average Hg-197m (%IA/g): bone: 1.68 %IA/g
Average Hg-197m (%IA/g): brain: 0.028 %IA/g
Average Hg-197m (%IA/g): feces: 0.026 %IA/g
Average Hg-197m (%IA/g): heart: 0.60 %IA/g
Average Hg-197m (%IA/g): kidneys: 3.65 %IA/g
Average Hg-197m (%IA/g): large intestine: 0.091 %IA/g
Average Hg-197m (%IA/g): lungs: 8.38 %IA/g
Average Hg-197m (%IA/g): muscle: 0.017 %IA/g
Average Hg-197m (%IA/g): pancreas: 0.056 %IA/g
Average Hg-197m (%IA/g): small intestine: 0.12 %IA/g
Average Hg-197m (%IA/g): spleen: 91.06 %IA/g
Average Hg-197m (%IA/g): stomach: 0.42 %IA/g
Average Hg-197m (%IA/g): tail: 2.77 %IA/g
Average Hg-197m (%IA/g): urine: 0.033 %IA/g
